Source: article PMC10180076, “Novel Biologically Active N-Substituted Benzimidazole Derived Schiff Bases: Design, Synthesis, and Biological Evaluation” (Molecules, 2023)
Converted amounts (≈) assume the structure as drawn.

Assays:
[1] = tested on: human coronavirus HCoV-229E; experiment: organism not typed; format: cell-based; details: HEL 299 cells, 100 CCID50, MTS; read-out: Antiviral Activity (EC50/μM) HCoV 229E HEL 299
[2] = tested on: human coronavirus HCoV-NL63; experiment: Antiviral CPE reduction assay, HCoV-NL63 in Huh-7; format: cell-based; details: Huh-7 cells, 100 CCID50, MTS
[3] = tested on: DND-41, acute lymphoblastic leukemia; experiment: Proliferation assay (MTS, 72 h), DND-41; format: cell-based, human; details: Homo sapiens, DND41
Description: (§1) Human cancer cells used in this manuscript, namely Capan-1, HCT-116, NCI-H460, LN-229, HL-60, K-562, and Z-138, were acquired from the American Type Culture Collection (ATCC, Manassas, VA, USA), while the DND-41 cell line was purchased from the Deutsche Sammlung von Mikroorganismen und Zellkulturen (DSMZ Leibniz-Institut, Braunschweig, Germany). Culture media were purchased from Gibco Life Technologies, Merelbeke, Belgium, and supplemented with 10% fetal bovine serum (HyClone, Cytiva, Marlborough, MA, USA). Vincristine and docetaxel, which were used as the reference inhibitors, were purchased from Selleckchem (Munich, Germany). Stock solutions were prepared in DMSO.
(§2) Adherent cell lines LN-229, HCT-116, and NCI-H460 and Capan-1 cells were seeded at a density between 500 and 1500 cells per well, in 384-well tissue culture plates (Greiner, Kremsmünster, Austria). After overnight incubation, the cells were treated with seven different concentrations of the test compounds, ranging from 100 to 0.006 µM.
(§3) Suspension cell lines HL-60, K-562, Z-138, and DND-41 were seeded at densities ranging from 2500 to 5500 cells per well in 384-well culture plates containing the test compounds at the same concentration points. The cells were incubated for 72 h with the compounds and were then analyzed using the CellTiter 96® AQueous One Solution Cell Proliferation Assay (MTS) reagent (Promega, Madison, WI, USA) according to the manufacturer’s instructions. […] The compounds were tested in two independent experiments.

[4] = tested on: influenza A/H1N1 (A/Ned/378/05); experiment: Antiviral CPE reduction assay, influenza A/H1N1 in MDCK; format: cell-based; details: Influenza A virus, MDCK cells, 100 CCID50, MTS
Zika virus (Mr776) = experiment: Antiviral CPE reduction assay, Zika virus in Huh-7; format: cell-based; details: Huh-7 cells, 100 CCID50, MTS
[5] = tested on: respiratory syncytial virus A (Long); experiment: Antiviral CPE reduction assay, RSV A in HEL 299; format: cell-based; details: human respiratory syncytial virus; HEL 299 cells, 100 CCID50, MTS
[6] = tested on: influenza A/H3N2 (A/HK/7/87); experiment: Antiviral CPE reduction assay, influenza A/H3N2 in MDCK; format: cell-based; details: Influenza A virus, MDCK cells, 100 CCID50, MTS
[7] = tested on: yellow fever virus (YFV 17D); experiment: microbe, parasite or virus in culture; format: cell-based; details: Huh-7, read-out: Antiviral Activity (EC50/μM) YFV 17D Huh-7
sindbis virus = experiment: Antiviral CPE reduction assay, Sindbis virus in Huh-7; format: cell-based; details: Huh-7 cells, 100 CCID50, MTS
[8] = tested on: herpes simplex virus-1 (HSV-1 KOS); experiment: Antiviral CPE reduction assay, HSV-1 KOS in HEL 299; format: cell-based; details: Human alphaherpesvirus 1; HEL 299 cells, 100 CCID50, MTS
LN-229, glioblastoma = experiment: Proliferation assay (MTS, 72 h), LN-229; format: cell-based, human; details: Homo sapiens, LN-229
Description: as §1, §2, §3

[9] = tested on: human coronavirus HCoV-OC43; experiment: microbe, parasite or virus in culture; format: cell-based; details: Betacoronavirus 1, OC43; HEL 299 cells, 100 CCID50, MTS; read-out: Antiviral Activity (EC50/μM) HCoV OC43 HEL 299
[10] = tested on: Capan-1, pancreatic adenocarcinoma; experiment: Proliferation assay (MTS, 72 h), Capan-1; format: cell-based, human; details: Homo sapiens, CAPAN-1
Description: as §1, §2, §3

[11] = tested on: HL-60, acute myeloid leukemia; experiment: Proliferation assay (MTS, 72 h), HL-60; format: cell-based, human; details: Homo sapiens, HL-60
Description: as §1, §2, §3

NCI-H460, lung carcinoma = experiment: Proliferation assay (MTS, 72 h), NCI-H460; format: cell-based, human; details: Homo sapiens, NCI-H460
Description: as §1, §2, §3

[12] = tested on: influenza B (B/Ned/537/05); experiment: Antiviral CPE reduction assay, influenza B in MDCK; format: cell-based; details: Influenza B virus; MDCK cells, 100 CCID50, MTS
in vitro [13] = details: dog
[14] = tested on: K-562, chronic myeloid leukemia; experiment: Proliferation assay (MTS, 72 h), K-562; format: cell-based, human; details: Homo sapiens, K562
Description: as §1, §2, §3

[15] = tested on: Z-138, non-Hodgkin lymphoma; experiment: Proliferation assay (MTS, 72 h), Z-138; format: cell-based, human; details: Homo sapiens, Z-138
Description: as §1, §2, §3

in vitro [16] = details: human
[17] = tested on: HCT-116, colorectal carcinoma; experiment: Proliferation assay (MTS, 72 h), HCT-116; format: cell-based, human; details: Homo sapiens, HCT-116
Description: as §1, §2, §3

in vitro [18] = details: human; remark: listed apart in the source
E. coli efflux del = experiment: microbe, parasite or virus in culture; format: cell-based; details: Table 2 prints no unit; μM for compounds; antibiotics tested at 0.125–64 µg/mL
Procedure: (§4) Selected bacterial strains were Gram-negative E. coli, K. pneumoniae, A. baumannii and P. aeruginosa and Gram-positive S. aureus, S. pneumoniae, and E. faecalis. The synthesized compounds were prepared as 10 mM DMSO solutions and tested in a final concentration range of 0.2–100 µM [39].
(§5) Broth microdilution testing was performed according to CLSI (Clinical Laboratory Standards Institute) guidelines. The MIC (minimal inhibitory concentration) value was defined as the last tested concentration of the compound at which there was no visible growth of bacteria. Inoculums for each microorganism were prepared using the direct colony suspension method, where broth solutions that achieved turbidity equivalent to 0.5 McFarland standard were additionally diluted 100× with Ca adjusted MH media (Becton Dickinson, Franklin Lakes, NJ, USA). All of the test plates were incubated for 16–24 h at 37 °C.
(§6) Methods for dilution of antimicrobial susceptibility tests for bacteria that grow aerobically followed M07, 11th edition, 2018, and Clinical and Laboratory Standards Institute (CLSI) guidelines. Performance standards for antimicrobial susceptibility testing followed the M100, 28th edition, 2018.

E. faecalis ATCC 29212 = experiment: Broth microdilution MIC, E. faecalis; format: cell-based; details: Enterococcus faecalis, ATCC29212; read-out: MIC against E. faecalis
Procedure: as §4, §5, §6

Structure (SMILES): CC(C)Cn1c(/N=C/c2ccc([N+](=O)[O-])cc2)nc2ccc(C#N)cc21 [Compound 32, (E)-1-Isobutyl-2-((4-nitrobenzylidene)amino)-1H-benzo[d]imidazole-6-carbonitrile]
- EC50 [1]: 38.5 µM
- EC50 [2]: > 100 µM
- IC50 [3]: > 100 µM
- EC50 [4]: > 100 µM
- EC50 (Zika virus (Mr776)): > 100 µM
- EC50 [5]: > 100 µM
- EC50 [6]: > 100 µM
- EC50 [7]: > 100 µM
- EC50 (sindbis virus): > 100 µM
- EC50 [8]: > 100 µM
- IC50 (LN-229, glioblastoma): > 100 µM
- melting point: 277 to 279 °C
- EC50 [9]: 68.7 µM
- IC50 [10]: > 100 µM
- IC50 [11]: > 100 µM
- IC50 (NCI-H460, lung carcinoma): > 100 µM
- EC50 [12]: > 100 µM
- CC50 (in vitro [13]): > 100 µM
- IC50 [14]: > 100 µM
- IC50 [15]: > 100 µM
- CC50 (in vitro [16]): > 100 µM
- IC50 [17]: > 100 µM
- CC50 (in vitro [18]): 90.1 µM

Structure (SMILES): CCN(CC)c1ccc(/C=N/c2nc3ccc(C#N)cc3n2-c2ccccc2)c(O)c1 [Compound 41, (E)-2-((4-(Diethylamino)-2-hydroxybenzylidene)amino)-1-phenyl-1H-benzo[d]imidazole-6-carbonitrile]
- EC50 [1]: > 100 µM
- EC50 [2]: > 100 µM
- IC50 [3]: 76.3 µM
- EC50 [4]: > 100 µM
- EC50 (Zika virus (Mr776)): > 100 µM
- MIC E. coli efflux del (E. coli efflux del): >64
- EC50 [5]: > 100 µM
- EC50 [6]: > 100 µM
- EC50 [7]: > 100 µM
- EC50 (sindbis virus): > 100 µM
- EC50 [8]: > 100 µM
- IC50 (LN-229, glioblastoma): > 100 µM
- melting point: 111 to 114 °C
- EC50 [9]: 89.5 µM
- IC50 [10]: 69.5 µM
- IC50 [11]: 49.6 µM
- IC50 (NCI-H460, lung carcinoma): > 100 µM
- EC50 [12]: > 100 µM
- CC50 (in vitro [13]): 71.6 µM
- IC50 [14]: > 100 µM
- IC50 [15]: 35.2 µM
- CC50 (in vitro [16]): > 100 µM
- IC50 [17]: > 100 µM
- CC50 (in vitro [18]): > 100 µM
- MIC (E. faecalis ATCC 29212): 32 µM (≈ 13.1 µg/mL)

Structure (SMILES): CN(C)c1ccc(/C=N/c2nc3ccc(C#N)cc3n2C)cc1 [Compound 34, (E)-2-((4-(Dimethylamino)benzylidene)amino)-1-methyl-1H-benzo[d]imidazole-6-carbonitrile]
- EC50 [1]: > 100 µM
- EC50 [2]: 82.8 µM
- IC50 [3]: > 100 µM
- EC50 [4]: > 100 µM
- EC50 (Zika virus (Mr776)): > 100 µM
- EC50 [5]: > 100 µM
- EC50 [6]: > 100 µM
- EC50 [7]: > 100 µM
- EC50 (sindbis virus): > 100 µM
- EC50 [8]: > 100 µM
- IC50 (LN-229, glioblastoma): > 100 µM
- EC50 [9]: > 100 µM
- IC50 [10]: > 100 µM
- IC50 [11]: > 100 µM
- IC50 (NCI-H460, lung carcinoma): > 100 µM
- EC50 [12]: 83.5 µM
- CC50 (in vitro [13]): > 100 µM
- IC50 [14]: > 100 µM
- IC50 [15]: > 100 µM
- CC50 (in vitro [16]): > 100 µM
- IC50 [17]: > 100 µM
- CC50 (in vitro [18]): > 100 µM

Structure (SMILES): CC(C)Cn1c(/N=C/c2ccc(N(C)C)cc2)nc2ccc(C#N)cc21 [Compound 29, (E)-2-((4-(Dimethylamino)benzylidene)amino)-1-isobutyl-1H-benzo[d]imidazole-6-carbonitrile]
- EC50 [1]: > 100 µM
- EC50 [2]: 79.8 µM
- IC50 [3]: > 100 µM
- EC50 [4]: 94.1 µM
- EC50 (Zika virus (Mr776)): > 100 µM
- EC50 [5]: > 100 µM
- EC50 [6]: > 100 µM
- EC50 [7]: > 100 µM
- EC50 (sindbis virus): > 100 µM
- EC50 [8]: > 100 µM
- IC50 (LN-229, glioblastoma): > 100 µM
- melting point: 283 to 285 °C
- EC50 [9]: > 100 µM
- IC50 [10]: > 100 µM
- IC50 [11]: 42.8 µM
- IC50 (NCI-H460, lung carcinoma): > 100 µM
- EC50 [12]: > 100 µM
- CC50 (in vitro [13]): > 100 µM
- IC50 [14]: > 100 µM
- IC50 [15]: > 100 µM
- CC50 (in vitro [16]): > 100 µM
- IC50 [17]: > 100 µM
- CC50 (in vitro [18]): > 100 µM

Structure (SMILES): CCN(CC)c1ccc(/C=N/c2nc3ccc(C#N)cc3n2C)c(O)c1 [Compound 36, (E)-2-((4-(Diethylamino)-2-hydroxybenzylidene)amino)-1-methyl-1H-benzo[d]imidazole-6-carbonitrile]
- EC50 [1]: 88.4 µM
- EC50 [2]: > 100 µM
- IC50 [3]: 41.4 µM
- EC50 [4]: > 100 µM
- EC50 (Zika virus (Mr776)): > 100 µM
- EC50 [5]: > 100 µM
- EC50 [6]: > 100 µM
- EC50 [7]: > 100 µM
- EC50 (sindbis virus): > 100 µM
- EC50 [8]: > 100 µM
- IC50 (LN-229, glioblastoma): > 100 µM
- EC50 [9]: > 100 µM
- IC50 [10]: > 100 µM
- IC50 [11]: > 100 µM
- IC50 (NCI-H460, lung carcinoma): > 100 µM
- EC50 [12]: > 100 µM
- CC50 (in vitro [13]): > 100 µM
- IC50 [14]: > 100 µM
- IC50 [15]: > 100 µM
- CC50 (in vitro [16]): > 100 µM
- IC50 [17]: > 100 µM
- CC50 (in vitro [18]): > 100 µM
